Test results from the supplement of paper PMC13380429.

Assays:
U2OS [1] = test: cell viability relative to DMSO; higher = less toxic; settings: 72 h
Vero E6 [2] = test: as above; settings: 72 h
Calu-3 [3] = test: as above; settings: 72 h
HepG2 [4] = test: as above; settings: 72 h
Caco-2 [5] = test: as above; settings: 72 h
[6] = system: A549-ACE2 infected with SARS-CoV-2; test: SARS-CoV-2 infection rate relative to DMSO; higher = more infection; settings: 24 h
A549-ACE2 [7] = test: drug-induced phospholipidosis relative to tamoxifen; higher = more phospholipidosis
[8] = system: A549-ACE2 infected with SARS-CoV-2; test: cell count relative to DMSO; higher = less toxic; settings: 24 h
U2OS [9] = test: drug sensitivity score (DSS) for viability; higher = more toxic; extreme values may be limits of the assay; settings: 72 h
Vero E6 [10] = test: as above; settings: 72 h
Calu-3 [11] = test: as above; settings: 72 h
HepG2 [12] = test: as above; settings: 72 h
Caco-2 [13] = test: as above; settings: 72 h
[14] = system: A549-ACE2 infected with SARS-CoV-2; test: morphology score (similarity to uninfected cells); higher = more like uninfected cells; settings: 24 h
U2OS [15] = test: relative viability EC50 (midpoint between 100% and the lowest measured viability); higher = less toxic; settings: 72 h
Vero E6 [16] = test: as above; settings: 72 h
Calu-3 [17] = test: as above; settings: 72 h
HepG2 [18] = test: as above; settings: 72 h
Caco-2 [19] = test: as above; settings: 72 h
A549-ACE2 [20] = test: phospholipidosis EC50; higher = less potent phospholipidosis inducer

COc1ccc2nc3c(c(N)c2c1)CCCC3 [7-methoxytacrine]
Settings	SARS-CoV-2 infection rate, [6] [%]	cell count, [8] [%]	cell viability, Caco-2 [5] [%]	cell viability, Calu-3 [3] [%]	cell viability, HepG2 [4] [%]	cell viability, U2OS [1] [%]	cell viability, Vero E6 [2] [%]	morphology score, [14]
1 nM	–	–	96	93	100	103	102	–
10 nM	–	–	98.2	102	91.4	102	99.8	–
100 nM	–	–	96.2	91.1	92.5	98.5	95.6	–
0.3 µM	102	103	–	–	–	–	–	-0.02
1000 nM	–	–	93.8	97.7	79.3	100	95.4	–
3 µM	81	109	–	–	–	–	–	0.53
10000 nM	–	–	92.2	95.5	83.5	95.3	98.9	–
10 µM	34	115	–	–	–	–	–	0.82
30 µM	17	111	–	–	–	–	–	0.76

drug-induced phospholipidosis [%], A549-ACE2 [7]
Settings	0.3 µM	0.833333 µM	3.33333 µM	6.66667 µM	10 µM	30 µM
24 h	0.14	-0.76	0.16	7.44	14.2	83.8
48 h	2.14	-1.42	1.92	4.91	9.37	110
72 h	5.21	-1.72	1.16	5.48	11.9	129

Settings	drug sensitivity score	relative viability EC50 [µM]
Caco-2 [13]	0	–
Caco-2 [19]	–	> 10
Calu-3 [11]	0	–
Calu-3 [17]	–	> 10
HepG2 [12]	2.6	–
HepG2 [18]	–	> 10
U2OS [9]	0	–
U2OS [15]	–	> 10
Vero E6 [10]	0	–
Vero E6 [16]	–	> 10

CC(C)n1nc(C#Cc2ccccc2)c2c(N)ncnc21 [SPP86]
Settings	SARS-CoV-2 infection rate [%]	cell count [%]	cell viability [%]	morphology score	phospholipidosis EC50 [µM]
A549-ACE2 [20], 24 h	–	–	–	–	15.1
Caco-2 [5], 1 nM	–	–	98.1	–	–
Caco-2 [5], 10 nM	–	–	98.9	–	–
Caco-2 [5], 100 nM	–	–	88.9	–	–
Caco-2 [5], 1000 nM	–	–	67.7	–	–
Caco-2 [5], 10000 nM	–	–	56.5	–	–
Calu-3 [3], 1 nM	–	–	107	–	–
Calu-3 [3], 10 nM	–	–	104	–	–
Calu-3 [3], 100 nM	–	–	99.7	–	–
Calu-3 [3], 1000 nM	–	–	92.7	–	–
Calu-3 [3], 10000 nM	–	–	62.8	–	–
HepG2 [4], 1 nM	–	–	102	–	–
HepG2 [4], 10 nM	–	–	106	–	–
HepG2 [4], 100 nM	–	–	103	–	–
HepG2 [4], 1000 nM	–	–	60.9	–	–
HepG2 [4], 10000 nM	–	–	34.4	–	–
U2OS [1], 1 nM	–	–	106	–	–
U2OS [1], 10 nM	–	–	109	–	–
U2OS [1], 100 nM	–	–	107	–	–
U2OS [1], 1000 nM	–	–	107	–	–
U2OS [1], 10000 nM	–	–	75.7	–	–
Vero E6 [2], 1 nM	–	–	99.7	–	–
Vero E6 [2], 10 nM	–	–	99.7	–	–
Vero E6 [2], 100 nM	–	–	100	–	–
Vero E6 [2], 1000 nM	–	–	98.5	–	–
Vero E6 [2], 10000 nM	–	–	81.3	–	–
[6], 0.3 µM	90	–	–	–	–
[6], 3 µM	89	–	–	–	–
[6], 10 µM	53	–	–	–	–
[6], 30 µM	32	–	–	–	–
[8], 0.3 µM	–	103	–	–	–
[8], 3 µM	–	103	–	–	–
[8], 10 µM	–	106	–	–	–
[8], 30 µM	–	84	–	–	–
[14], 0.3 µM	–	–	–	0.34	–
[14], 3 µM	–	–	–	0.41	–
[14], 10 µM	–	–	–	0.54	–
[14], 30 µM	–	–	–	0.29	–

drug-induced phospholipidosis [%], A549-ACE2 [7]
Settings	0.3 µM	0.833333 µM	3.33333 µM	6.66667 µM	10 µM	30 µM
24 h	3.29	3.69	12.6	41.4	63.6	142
48 h	3.96	2.69	12.1	21.7	35.6	–
72 h	6.41	0.816	8.31	18.5	28.1	–

Settings	drug sensitivity score	relative viability EC50 [µM]
Caco-2 [13]	6.9	–
Calu-3 [11]	3	–
HepG2 [12]	8.3	–
HepG2 [18]	–	0.858
U2OS [9]	0.6	–
U2OS [15]	–	> 10
Vero E6 [10]	0.7	–
Vero E6 [16]	–	> 10

NC(=O)c1noc([C@H](CCCC2CCCCC2)CC(=O)NO)n1
Settings	SARS-CoV-2 infection rate, [6] [%]	cell count, [8] [%]	cell viability, Caco-2 [5] [%]	cell viability, Calu-3 [3] [%]	cell viability, HepG2 [4] [%]	cell viability, U2OS [1] [%]	cell viability, Vero E6 [2] [%]	morphology score, [14]
1 nM	–	–	97.2	106	102	96.4	95.2	–
10 nM	–	–	93	102	108	101	90.9	–
100 nM	–	–	96.9	93.8	109	101	93.1	–
0.3 µM	102	102	–	–	–	–	–	-0.06
1000 nM	–	–	88	110	89.6	97.4	91.4	–
3 µM	98	100	–	–	–	–	–	0
10000 nM	–	–	79.6	98.7	74.8	86.7	97	–
10 µM	89	102	–	–	–	–	–	0.38
30 µM	95	101	–	–	–	–	–	0.25

drug-induced phospholipidosis [%], A549-ACE2 [7]
Settings	0.3 µM	0.833333 µM	3.33333 µM	6.66667 µM	10 µM	30 µM
24 h	4.23	6.27	14.7	16.7	18.4	23.6
48 h	4.52	5.1	16.8	23.1	24.9	32.6
72 h	5.18	1.64	8.76	19.5	21	–

Settings	drug sensitivity score	relative viability EC50 [µM]
Caco-2 [13]	1.2	–
Caco-2 [19]	–	> 10
Calu-3 [11]	0	–
Calu-3 [17]	–	> 10
HepG2 [12]	2.2	–
U2OS [9]	0.3	–
U2OS [15]	–	> 10
Vero E6 [10]	0	–
Vero E6 [16]	–	> 10

NC1(c2ccc(-c3nc4ccn5c(=O)[nH]nc5c4cc3-c3ccccc3)cc2)CCC1 [MK-2206]
Settings	SARS-CoV-2 infection rate [%]	cell count [%]	cell viability [%]	morphology score	phospholipidosis EC50 [µM]
A549-ACE2 [20], 24 h	–	–	–	–	3.24
A549-ACE2 [20], 48 h	–	–	–	–	3.44
Caco-2 [5], 1 nM	–	–	102	–	–
Caco-2 [5], 10 nM	–	–	95.3	–	–
Caco-2 [5], 100 nM	–	–	87.1	–	–
Caco-2 [5], 1000 nM	–	–	75	–	–
Caco-2 [5], 10000 nM	–	–	66.2	–	–
Calu-3 [3], 1 nM	–	–	104	–	–
Calu-3 [3], 10 nM	–	–	100	–	–
Calu-3 [3], 100 nM	–	–	84.1	–	–
Calu-3 [3], 1000 nM	–	–	63	–	–
Calu-3 [3], 10000 nM	–	–	38	–	–
HepG2 [4], 1 nM	–	–	95.6	–	–
HepG2 [4], 10 nM	–	–	93.7	–	–
HepG2 [4], 100 nM	–	–	84.8	–	–
HepG2 [4], 1000 nM	–	–	66.1	–	–
HepG2 [4], 10000 nM	–	–	59	–	–
U2OS [1], 1 nM	–	–	104	–	–
U2OS [1], 10 nM	–	–	103	–	–
U2OS [1], 100 nM	–	–	96.9	–	–
U2OS [1], 1000 nM	–	–	89	–	–
U2OS [1], 10000 nM	–	–	67.8	–	–
Vero E6 [2], 1 nM	–	–	94	–	–
Vero E6 [2], 10 nM	–	–	94.7	–	–
Vero E6 [2], 100 nM	–	–	93.4	–	–
Vero E6 [2], 1000 nM	–	–	81	–	–
Vero E6 [2], 10000 nM	–	–	63.2	–	–
[6], 0.1 µM	105	–	–	–	–
[6], 0.3 µM	101	–	–	–	–
[6], 1 µM	97	–	–	–	–
[6], 3 µM	29	–	–	–	–
[8], 0.1 µM	–	100	–	–	–
[8], 0.3 µM	–	99	–	–	–
[8], 1 µM	–	85	–	–	–
[8], 3 µM	–	103	–	–	–
[14], 0.1 µM	–	–	–	0.19	–
[14], 0.3 µM	–	–	–	0.27	–
[14], 1 µM	–	–	–	0.31	–
[14], 3 µM	–	–	–	0.79	–

drug-induced phospholipidosis [%], A549-ACE2 [7]
Settings	0.3 µM	0.833333 µM	3.33333 µM	6.66667 µM	10 µM	30 µM
24 h	3.85	16.3	76	128	149	82.1
48 h	2.41	16.9	89	158	169	–
72 h	0.889	14.8	66.8	–	–	–

Settings	drug sensitivity score	relative viability EC50 [µM]
Caco-2 [13]	5.4	–
Calu-3 [11]	8.7	–
Calu-3 [17]	–	0.49
HepG2 [12]	7.6	–
U2OS [9]	2.7	–
Vero E6 [10]	3.9	–
